The results in this text go back to patent US12246022B2, “Compositions and methods for treating, preventing or reversing age associated inflammation and disorders” (BROWN UNIVERSITY, priority 2019, dated 2025).

The test system of one series is IFN-I response. In words: IFN-I response in senescent and 3X human fibroblasts (RT-qPCR, ELISA, immunoblotting). It counts as cell-based. The source says:
To obtain replicatively senescent (RS) cells, LF1 cultures were serially propagated until proliferation ceased. At each passage, after reaching 80% confluence cells were trypsinized and diluted 1:4. […] In early passage cultures, the time between passages is constant at approximately 3 days. […] At this point, after reaching 80% confluence, the cells were replated at 1:2 dilution, and this time was designated as the last passage (point A in FIG. 2A). […] Under this experimental regimen, the majority of the cells in the culture enter senescence within a 3-4 weeks window centered roughly around the time of last passage (grey bar in FIG. 2A). At point B (4 weeks), the cultures were trypsinized and replated as described^60 to eliminate a small fraction of persisting contact-inhibited cells. Cultures were again replated at point C (8 weeks).
Oncogene-induced senescence (OIS) was elicited by infecting proliferating LF1 cells with pLenti CMV RasV12 Neo (Addgene plasmid #22259). Generation of lentiviral particles and the infection procedure are described below. At the end of the infection, cells were reseeded at 15-20% confluency and selected with G418 (250 μg/ml) maintained continuously until the end of the experiment Medium was changed every 3 days until the cultures were harvested at the indicated time points. Stress-induced premature senescence (SIPS) was elicited by […] irradiation with 20 Gy given at a rate of 87 cGy/min in one fraction using a cesium-137 gamma source (Nordion Gammacell 40). Cells were 15-20% confluent at the time of irradiation. Medium was changed immediately after irradiation, and at 3-day intervals thereafter. […]
The ABI ViiA 7 instrument (Applied Biosystems) was used for all experiments. qPCR of DNA was performed using the TaqMan system (Applied Biosystems) as described by Coufal et al. (2009).^64 […] of purified genomic DNA was used with the indicated primers (see Table 1). […] Effectiveness of the DNase digestion was assessed using controls that omitted the RT enzyme. […]
(In general: Real-time PCR tracks product formation cycle by cycle.)

The nature of series [1]: Comparative studies: intracellular drug concentration relative to LINE-1 IC50 and huCSF/Plasma ratio. To be noted: Table 13 Comparative Studies.
A further series concerns human LINE-1. In words: Human LINE-1 retrotransposition assay, related experiments with islatravir (pYX017, HeLa cells, Tables 12 and 13). To be noted: Homo sapiens. The series is classed as cell-based. The method, then: In related experiments, islatravir and other compounds were tested for inhibition of retrotransposition activity of human LINE-1 in HeLa cells according to the following procedure.
HeLa cervical cancer cells were cultivated at 37° C. in a humidified 5% CO2 incubator in Dulbecco's Modified Eagle's Medium (DMEM)—high glucose, with 4500 mg/L glucose, L-glutamine, sodium pyruvate and sodium bicarbonate (Sigma), supplemented with 10% of heat inactivated fetal bovine serum (Thermo Fisher).
Assays were performed using reporter plasmid pYX017 as described (Xie, et al., 2011) with several modifications. The reporter assay was performed in 96-well white optical bottom plates. HeLa cells were seeded in wells 24 h prior to transfection and compound treatment so that cells were approximately 30% confluent on the day of transfection. Different cell plating densities were tested and a density of 2×10^3 cells was determined to be optimal.
Compounds were resuspended in DMSO. Serial dilutions (1:3) were prepared in DMSO. Medium containing different concentrations of the compounds were prepared by adding 2 μl of the compound dilution to 1 ml of the culture medium. The final concentration of DMSO in the medium was 0.2%.
FuGENE® HD transfection reagent (Promega, E2311, Lot 382574 and Lot 397842) was used to transfect the plasmids into the cells. The transfection reagent: DNA mixture was prepared in OpiMEM (Thermo Fisher) according to manufacturer's instructions. Different ratios of transfection reagent to DNA were tested and a ratio of 3:1 was determined to be optimal. Culture medium was removed from the cells and discarded. The transfection reagent: DNA mixture (5 μl) was mixed with the compound containing medium (100 μl/well) and this was added onto the cells of each well. Cells were incubated at 37° C./5% CO2 for different incubation time. A 72 h incubation time was determined to be optimal.
Luciferase reporter activity was quantified with the Dual-Luciferase® Reporter Assay System (Promega) according to manufacturer's instructions for multiwell plates except that cells were lysed directly on the multiwell plate with 30 μl of the passive lysis buffer (PLB) for 20 min at room temperature, with gentle shaking to ensure complete cell lysis.
Firefly and Renilla luciferase signals were measured using a SpectraMax i3x Multi-Mode Microplate Reader. Integration times of 100 ms and 10 ms were used to measure the Firefly and Renilla signals respectively. Relative L1 activity is calculated as Firefly/Renilla *1000 or Firefly/Renilla *10,000. Dose response inhibition data were fit to a four parameter logistic equation using non-linear regression (using Graphpad Prism 8), to determine IC50 values for each inhibitor.

Where [2] appears, read: HeLa, Table 13 Comparative Studies, read-out: Human Line-1 IC50.

What is called pIC50 is the negative decadic logarithm of the IC50, by convention in mol/L.

pIC50: −log10 of the molar value. Like-named read-outs stand apart in the source and are kept apart here.

Turning to `Nc1ccn([C@@H]2CS[C@H](CO)O2)c(=O)n1` [Lamivudine], the “concentration range that optimally inhibited the IFN-I response” value in the series with IFN-I response (senescent cells) was 7.5 to 10 µM. Besides, the “Human Line-1 Intracellular drug conc. (% of IC-50 conc.)” value in series [1] is 9%. Moreover, the pIC50 was 6.19 in the series with human LINE-1 (setting [2]); 6.10 in the series with human LINE-1 (HeLa cells, pYX017, 72 h, n = 3, read-out: Human LINE-1 IC50, Average); 6.05 in the series on human LINE-1 (HeLa cells, pYX017, 72 h, read-out: Human LINE-1 IC50, Exp.1); 6.15 in the series on human LINE-1 (HeLa cells, pYX017, 72 h, read-out: Human LINE-1 IC50, Exp.2).

Consider `Nc1nc(=O)n([C@@H]2CS[C@H](CO)O2)cc1F` [Emtricitabine], for which the “interferon gene expression (IFN-α, IFN-β1)” value in the series with IFN-I response (LF1, 50 μM, drug for 1 month from 3 months in senescence) is listed as “decreased the expression of interferons”. In series [1], the “Human Line-1 Intracellular drug conc. (% of IC-50 conc.)” value is listed as 67%. For the same compound, the pIC50 in the series on human LINE-1 (setting [2]) is 5.87.
